Values quoted from earlier work, collected in patent US7446098B2, “Combination therapy for treating protein deficiencies” (Mount Sinai School of Medicine of New York University, priority 2003, dated 2008).
Numbering of substitutions follows the chain as printed.

Experiments:
wild-type α-Gal A = biological target: T1, wild-type α-Gal A (Homo sapiens, UniProt P06280); conditions: transfected COS-7 cells; cited from earlier work
T1 construct: expressed in transfected cells; host or cells: COS-7
T1 sequence (P06280 32-429): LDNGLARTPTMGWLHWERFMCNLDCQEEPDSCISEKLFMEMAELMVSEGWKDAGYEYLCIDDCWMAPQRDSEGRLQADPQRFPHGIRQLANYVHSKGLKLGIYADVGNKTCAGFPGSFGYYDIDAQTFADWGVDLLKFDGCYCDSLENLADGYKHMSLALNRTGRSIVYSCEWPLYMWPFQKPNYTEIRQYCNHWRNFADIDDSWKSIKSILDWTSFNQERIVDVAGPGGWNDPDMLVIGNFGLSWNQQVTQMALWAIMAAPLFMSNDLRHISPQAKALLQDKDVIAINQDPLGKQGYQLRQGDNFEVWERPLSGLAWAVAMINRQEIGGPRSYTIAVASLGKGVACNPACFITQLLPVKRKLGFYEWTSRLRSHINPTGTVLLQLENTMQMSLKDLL

[1] = test system: mutant α-Gal A (R301Q or Q279E); conditions: lymphoblasts from Fabry patients with R301Q or Q279E mutations; cited from earlier work
mutant (R301Q) α-Gal A = biological target: T2, mutant (R301Q) α-Gal A (Homo sapiens, UniProt P06280, R301Q); conditions: oral administration; transgenic mice overexpressing mutant (R301Q) α-Gal A; cited from earlier work
T2 construct: expressed in transfected cells; host or cells: transgenic mice (major organs)
T2 sequence (P06280 32-429 R301Q): T1 sequence (P06280 32-429) with R270Q

mutant α-Gal A (R301Q) = biological target: T3, mutant α-Gal A (R301Q) (Homo sapiens, UniProt P06280, R301Q); conditions: neutral pH; cited from earlier work
T3 sequence (P06280 32-429 R301Q): T1 sequence (P06280 32-429) with R270Q

SMILES: OC[C@H]1NC[C@H](O)[C@@H](O)[C@H]1O [DGJ, 1-deoxygalactonojirimycin]
- activity of wild-type α-Gal A (wild-type α-Gal A): able to increase
- amount of wild-type α-Gal A (wild-type α-Gal A): able to increase
- mutant enzyme activity in lymphoblasts [1]: enhanced
- enzyme activity in major organs (mutant (R301Q) α-Gal A): substantially elevated
- in vitro stability of mutant α-Gal A (R301Q) (mutant α-Gal A (R301Q)): effectively increased
